Laboratory results published in article PMC9181188 (International Journal of Molecular Sciences, 2022).
Converted amounts (≈) assume the structure as drawn. Where two headings read alike, the source gives them in different places.

Experiments:
[1] = tested on: SW620 cells; test: MTT assay, SW620; format: cell-based, human; settings: for IC50: human metastatic colon cancer, 72 h, MTT, mean ± SD; for SI SW620: SI = IC50 for normal cell line (HaCaT)/IC50 cancer cell line
[2] = tested on: SW480 cells; test: MTT assay, SW480; format: cell-based, human; settings: for IC50: human primary colon cancer, 72 h, MTT, mean ± SD; for SI SW480: SI = IC50 for normal cell line (HaCaT)/IC50 cancer cell line
[3] = target: T1, S. aureus topoisomerase IV (Staphylococcus aureus, UniProt P0C1S7+P0C1U9); test: S. aureus topoisomerase IV decatenation assay; format: biochemical
T1 construct: purchased Inspiralis
Experimental: The assay was performed using S. aureus topoisomerase IV […] kit (Inspiralis). Kinetoplast DNA (kDNA) was the substrate for topoisomerase IV.

[4] = target: S. aureus DNA gyrase (Staphylococcus aureus, UniProt P0A0K8+P20831); test: biochemical
Experimental: The assay was performed using S. aureus DNA Gyrase Supercoiling kit (Inspiralis). […] Samples were vortexed, centrifuged, and 20 µL of the aqueous phase of each sample was loaded onto a 1% agarose gel and left for 30 min prior to electrophoresis to allow diffusion of salt. Electrophoresis was conducted in TAE buffer for 3 h at 50 V. Gels were stained with ethidium bromide and visualized under UV light in a transilluminator (ChemiDoc MP, Bio Rad, Warsaw, Poland).

[5] = tested on: standard staphylococci (S. aureus, S. epidermidis); test: MIC, standard Gram-positive strains as a group; format: cell-based; settings: Staphylococcus aureus; range over standard Gram-positive strains; read-out: MIC against standard staphylococci
[6] = tested on: S. epidermidis KR 4313 834/19; test: MIC, clinical S. epidermidis strain; format: cell-based; settings: Staphylococcus epidermidis, KR4313834/19, quinolone-susceptible, 18 h of treatment
[7] = tested on: S. epidermidis KR 4358/2 840/19; test: MIC, clinical S. epidermidis strain; format: cell-based; settings: Staphylococcus epidermidis, read-out: MIC KR 4358/2 840/19
[8] = tested on: M. tuberculosis H37Rv; test: MABA (microplate Alamar blue assay) MIC; format: cell-based; settings: Mycobacterium tuberculosis, 336 h, read-out: MIC M. tuberculosis H37Rv
[9] = tested on: S. aureus ATCC 25923; test: MIC, twofold microdilution, standard strain; format: cell-based; settings: Staphylococcus aureus, ATCC25923; 18 h of treatment; read-out: MIC S. aureus ATCC 25923
[10] = tested on: S. aureus ATCC 6538; test: MIC, twofold microdilution, standard strain; format: cell-based; settings: Staphylococcus aureus, ATCC6538; 18 h of treatment; read-out: MIC S. aureus ATCC 6538
[11] = tested on: S. epidermidis T 5501 851/19; test: MIC, clinical S. epidermidis strain; format: cell-based; settings: Staphylococcus epidermidis, T5501851/19, read-out: MIC T 5501 851/19, quinolone-susceptible, 18 h of treatment
[12] = tested on: S. aureus ATCC 29213; test: MIC, twofold microdilution, standard strain; format: cell-based; settings: Staphylococcus aureus, ATCC29213; 18 h of treatment; read-out: MIC S. aureus ATCC 29213
[13] = tested on: E. coli ATCC 25922; test: MIC, twofold microdilution, standard strain; format: cell-based, Escherichia coli; settings: Escherichia coli, ATCC25922; 18 h of treatment; read-out: MIC E. coli ATCC 25922
[14] = tested on: SW480, SW620, and PC3 cancer cell lines; test: MTT assay, cancer cell lines as a group; format: cell-based, human; settings: Homo sapiens, 72 h, all three cancer cell lines (SW480, SW620, PC3), read-out: IC50 against all tested cancer cell lines
[15] = tested on: S. epidermidis KR 4047 825/19; test: MIC, clinical S. epidermidis strain; format: cell-based; settings: Staphylococcus epidermidis, KR4047825/19, quinolone-resistant, 18 h of treatment
[16] = tested on: HaCaT cells; test: MTT assay, HaCaT normal cells; format: cell-based; settings: human immortal keratinocyte cell line, 72 h, mean ± SD
[17] = tested on: S. epidermidis ATCC 12228; test: MIC, twofold microdilution, standard strain; format: cell-based; settings: Staphylococcus epidermidis, read-out: MIC S. epidermidis ATCC 12228
[18] = tested on: M. tuberculosis Spec. 192 (Sensitive to Tuberculostatics); test: MABA (microplate Alamar blue assay) MIC; format: cell-based; settings: Mycobacterium tuberculosis, 336 h, read-out: MIC M. tuberculosis Spec. 192 (Sensitive to Tuberculostatics)
[19] = tested on: S. epidermidis ATCC 35984; test: MIC, twofold microdilution, standard strain; format: cell-based; settings: Staphylococcus epidermidis, ATCC35984; 18 h of treatment; read-out: MIC S. epidermidis ATCC 35984
[20] = tested on: S. epidermidis T 5399 848/19; test: MIC, clinical S. epidermidis strain; format: cell-based; settings: Staphylococcus epidermidis, T5399848/19, quinolone-susceptible, 18 h of treatment
[21] = tested on: S. epidermidis T 5253 845/19; test: MIC, clinical S. epidermidis strain; format: cell-based; settings: Staphylococcus epidermidis, T5253845/19, quinolone-resistant, 18 h of treatment
[22] = tested on: P. aeruginosa ATCC 27853; test: MIC, twofold microdilution, standard strain; format: cell-based; settings: Pseudomonas aeruginosa, read-out: MIC P. aeruginosa ATCC 27853
[23] = tested on: S. aureus NCTC 4163; test: MIC, twofold microdilution, standard strain; format: cell-based; settings: Staphylococcus aureus, NCTC4163; 18 h of treatment; read-out: MIC S. aureus NCTC 4163
[24] = tested on: PC3 cells; test: MTT assay, PC3; format: cell-based, human; settings: for SI PC3: SI = IC50 for normal cell line (HaCaT)/IC50 cancer cell line
[25] = tested on: S. epidermidis KR 4243 829/19; test: MIC, clinical S. epidermidis strain; format: cell-based; settings: Staphylococcus epidermidis, KR4243829/19, quinolone-susceptible, 18 h of treatment

Sequence of S. aureus DNA gyrase (P20831 whole entry): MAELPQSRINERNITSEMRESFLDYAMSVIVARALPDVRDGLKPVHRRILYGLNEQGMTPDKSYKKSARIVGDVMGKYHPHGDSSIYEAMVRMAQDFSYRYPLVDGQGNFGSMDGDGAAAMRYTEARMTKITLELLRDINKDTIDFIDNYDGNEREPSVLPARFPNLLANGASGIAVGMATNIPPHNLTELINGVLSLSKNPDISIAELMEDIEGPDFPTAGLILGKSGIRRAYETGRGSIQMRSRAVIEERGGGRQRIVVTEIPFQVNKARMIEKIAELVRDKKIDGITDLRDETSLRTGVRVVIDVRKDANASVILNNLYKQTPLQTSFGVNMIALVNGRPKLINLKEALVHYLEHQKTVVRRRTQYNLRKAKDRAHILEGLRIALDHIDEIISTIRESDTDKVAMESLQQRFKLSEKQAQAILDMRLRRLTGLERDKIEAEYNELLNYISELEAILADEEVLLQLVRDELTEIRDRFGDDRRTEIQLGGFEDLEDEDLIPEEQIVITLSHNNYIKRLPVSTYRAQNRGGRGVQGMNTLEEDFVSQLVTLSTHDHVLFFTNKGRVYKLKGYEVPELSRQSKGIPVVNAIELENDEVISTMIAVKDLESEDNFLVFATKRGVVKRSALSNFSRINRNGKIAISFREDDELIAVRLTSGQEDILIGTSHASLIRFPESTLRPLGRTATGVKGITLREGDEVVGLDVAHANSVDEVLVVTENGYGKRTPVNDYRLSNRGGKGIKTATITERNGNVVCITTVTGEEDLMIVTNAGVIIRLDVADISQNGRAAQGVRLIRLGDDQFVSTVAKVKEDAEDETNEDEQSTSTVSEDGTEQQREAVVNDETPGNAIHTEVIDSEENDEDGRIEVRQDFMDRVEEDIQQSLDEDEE
Sequence of S. aureus DNA gyrase (P0A0K8 whole entry): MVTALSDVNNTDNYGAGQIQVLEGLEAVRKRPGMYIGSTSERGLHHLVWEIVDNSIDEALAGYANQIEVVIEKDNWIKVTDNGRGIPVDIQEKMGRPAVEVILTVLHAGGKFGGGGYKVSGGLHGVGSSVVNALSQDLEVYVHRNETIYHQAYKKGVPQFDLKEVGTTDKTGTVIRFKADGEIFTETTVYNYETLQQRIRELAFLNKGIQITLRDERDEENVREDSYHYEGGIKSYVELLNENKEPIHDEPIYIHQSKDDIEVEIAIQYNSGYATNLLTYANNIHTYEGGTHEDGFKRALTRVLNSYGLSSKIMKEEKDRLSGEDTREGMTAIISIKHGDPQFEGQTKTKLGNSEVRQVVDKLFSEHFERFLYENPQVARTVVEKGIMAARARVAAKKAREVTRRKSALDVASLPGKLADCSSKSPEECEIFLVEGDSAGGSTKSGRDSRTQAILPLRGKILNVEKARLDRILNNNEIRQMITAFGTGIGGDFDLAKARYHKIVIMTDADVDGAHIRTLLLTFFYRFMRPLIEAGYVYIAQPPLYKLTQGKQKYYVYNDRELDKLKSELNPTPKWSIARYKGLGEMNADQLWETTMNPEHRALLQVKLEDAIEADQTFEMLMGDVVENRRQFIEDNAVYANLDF
T1 sequence (P0C1U9 whole entry): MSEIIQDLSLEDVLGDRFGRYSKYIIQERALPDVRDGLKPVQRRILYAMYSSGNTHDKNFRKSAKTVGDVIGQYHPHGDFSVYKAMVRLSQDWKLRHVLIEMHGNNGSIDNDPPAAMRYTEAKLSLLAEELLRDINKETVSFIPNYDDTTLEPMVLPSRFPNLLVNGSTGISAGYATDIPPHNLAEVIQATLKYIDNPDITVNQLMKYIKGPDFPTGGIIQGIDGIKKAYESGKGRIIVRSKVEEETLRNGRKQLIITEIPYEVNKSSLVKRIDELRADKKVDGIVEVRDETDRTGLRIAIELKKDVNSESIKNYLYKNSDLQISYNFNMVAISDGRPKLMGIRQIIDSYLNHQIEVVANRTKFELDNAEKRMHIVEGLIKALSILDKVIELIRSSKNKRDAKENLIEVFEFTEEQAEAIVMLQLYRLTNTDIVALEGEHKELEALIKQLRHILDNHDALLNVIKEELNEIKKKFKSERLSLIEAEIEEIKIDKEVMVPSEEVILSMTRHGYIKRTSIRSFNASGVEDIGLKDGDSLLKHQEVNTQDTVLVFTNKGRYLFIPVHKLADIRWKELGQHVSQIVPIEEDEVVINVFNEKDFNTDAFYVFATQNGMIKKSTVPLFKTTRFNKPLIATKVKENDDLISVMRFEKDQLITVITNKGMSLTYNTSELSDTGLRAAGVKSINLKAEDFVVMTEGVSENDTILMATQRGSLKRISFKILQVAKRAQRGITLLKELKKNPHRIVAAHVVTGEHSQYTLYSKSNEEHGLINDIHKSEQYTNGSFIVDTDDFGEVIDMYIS
T1 sequence (P0C1S7 whole entry): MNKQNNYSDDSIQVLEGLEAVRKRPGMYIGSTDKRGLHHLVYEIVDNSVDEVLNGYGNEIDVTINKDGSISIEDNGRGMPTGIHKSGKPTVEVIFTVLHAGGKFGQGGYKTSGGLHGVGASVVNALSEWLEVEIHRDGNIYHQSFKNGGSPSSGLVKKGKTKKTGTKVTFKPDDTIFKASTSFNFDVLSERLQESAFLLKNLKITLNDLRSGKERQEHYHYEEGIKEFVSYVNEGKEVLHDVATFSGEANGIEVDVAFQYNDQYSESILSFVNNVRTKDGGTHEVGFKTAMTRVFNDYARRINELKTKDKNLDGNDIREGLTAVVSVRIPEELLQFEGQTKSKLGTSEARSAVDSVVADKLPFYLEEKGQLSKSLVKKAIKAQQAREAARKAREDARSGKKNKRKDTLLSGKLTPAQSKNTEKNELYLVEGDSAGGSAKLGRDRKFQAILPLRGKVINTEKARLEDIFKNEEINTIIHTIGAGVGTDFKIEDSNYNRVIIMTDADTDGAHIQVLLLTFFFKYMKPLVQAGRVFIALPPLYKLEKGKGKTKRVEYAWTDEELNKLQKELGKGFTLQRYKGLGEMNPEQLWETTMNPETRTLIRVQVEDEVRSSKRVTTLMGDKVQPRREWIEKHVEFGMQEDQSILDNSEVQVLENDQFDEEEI

In the case of N.N.[Cl][Pt][Cl] [Cisplatin, reference compound], the IC50 [1] is reported as 6.7 ± 1.1 µM and the IC50 [2] is reported as 10.4 ± 0.9 µM.

Compound CC=CC(=O)N1CCN(c2cc3c(cc2F)c(=O)c(C(=O)O)cn3C2CC2)CC1 [Compound 1] has an IC50 [3] greater than 160 µM and an IC50 [4] greater than 160 µM.

Compound CC=CC=CC(=O)N1CCN(c2cc3c(cc2F)c(=O)c(C(=O)O)cn3C2CC2)CC1 [Compound 2] has an IC50 [3] of 75.2 µM and an IC50 [4] of 79.9 µM.

Compound CC(C)=CCCC(C)=CC(=O)N1CCN(c2cc3c(cc2F)c(=O)c(C(=O)O)cn3C2CC2)CC1 [Compound 3] has an IC50 [3] greater than 133 µM and an IC50 [4] of 107 µM.

CCCCCCCC/C=C\CCCCCCCC(=O)N1CCCC2CN(c3c(F)cc4c(=O)c(C(=O)O)cn(C5CC5)c4c3OC)CC21 (stereo not shown) [Compound 4m, 1-Cyclopropyl-6-fluoro-8-methoxy-7-{1-(Z)-octadec-9-enoyl-octahydro-pyrrolo[3,4-b]pyridin-6-yl}-4-oxo-1,4-dihydro-quinoline-3-carboxylic acid] was tested, and the IC50 ([1]; Homo sapiens, SW-620, 72 h) was 3.4 ± 0.7 µM, the “SI SW620” value [1] was 27.1 and the MIC [5] was greater than 32 µg/mL. For the same compound, the MIC [6] was greater than 512 µg/mL, the MIC ([7]; KR4358/2840/19, 18 h) was greater than 512 µg/mL and the MIC [8] was greater than 512 µg/mL. For the same compound, the MIC [9] was 256 µg/mL (≈ 384 µM), the MIC [10] was 128 µg/mL (≈ 192 µM) and the MIC [11] was greater than 512 µg/mL. It also gave an MIC [12] of 512 µg/mL (≈ 769 µM), an MIC [13] of 512 µg/mL (≈ 769 µM) and an IC50 [14] of less than 5 µM. The IC50 ([2]; Homo sapiens, SW480, 72 h) was 4.6 ± 1.4 µM, the “SI SW480” value [2] was 20.1 and the MIC [15] was greater than 512 µg/mL. For the same compound, the IC50 [16] was 92.3 ± 6.1 µM, the MIC ([17]; ATCC12228, 18 h) was greater than 512 µg/mL and the MIC [18] was greater than 512 µg/mL. For the same compound, the MIC [19] was 256 µg/mL (≈ 384 µM), the MIC [20] was greater than 512 µg/mL and the MIC [21] was greater than 512 µg/mL. For the same compound, the MIC ([22]; ATCC27853, 18 h of treatment) was 128 µg/mL (≈ 192 µM), the MIC [23] was 128 µg/mL (≈ 192 µM) and the “SI PC3” value [24] was 71.0. It also gave an MIC [25] greater than 512 µg/mL.

CCCCCCCC/C=C\CCCCCCCCCCCC(=O)N1CCCC2CN(c3c(F)cc4c(=O)c(C(=O)O)cn(C5CC5)c4c3OC)CC21 (stereo not shown) [Compound 7m, 1-Cyclopropyl-7-{1-(Z)-docos-13-enoyl-octahydro-pyrrolo[3,4-b]pyridin-6-yl}-6-fluoro-8-methoxy-4-oxo-1,4-dihydro-quinoline-3-carboxylic acid] was tested, and the IC50 ([1]; Homo sapiens, SW-620, 72 h) was 51.8 ± 4.3 µM, the “SI SW620” value [1] was 1.6 and the MIC [5] was greater than 32 µg/mL. It also gave an MIC [6] of 256 µg/mL (≈ 355 µM), an MIC ([7]; KR4358/2840/19, clinical S. epidermidis, quinolone-susceptible, 18 h of treatment) of 256 µg/mL (≈ 355 µM) and an MIC [8] greater than 512 µg/mL. The MIC [9] was 512 µg/mL (≈ 709 µM), the MIC [10] was 128 µg/mL (≈ 177 µM) and the MIC [11] was 256 µg/mL (≈ 355 µM). It also gave an MIC [12] of 512 µg/mL (≈ 709 µM), an MIC [13] of 256 µg/mL (≈ 355 µM) and an IC50 ([2]; Homo sapiens, SW480, 72 h) of 48.6 ± 2.6 µM. For the same compound, the “SI SW480” value [2] was 1.8, the MIC [15] was 512 µg/mL (≈ 709 µM) and the IC50 [16] was 85.2 ± 3.3 µM. It also gave an MIC ([17]; ATCC12228, 18 h of treatment) of 512 µg/mL (≈ 709 µM), an MIC [18] greater than 512 µg/mL and an MIC [19] of 256 µg/mL (≈ 355 µM). For the same compound, the MIC [20] was 512 µg/mL (≈ 709 µM), the MIC [21] was greater than 512 µg/mL and the MIC ([22]; ATCC27853, 18 h) was greater than 512 µg/mL. For the same compound, the MIC [23] was 256 µg/mL (≈ 355 µM), the IC50 ([24]; Homo sapiens, PC-3, 72 h, human metastatic prostate cancer, 72 h, MTT, mean ± SD) was 36.5 ± 2.3 µM and the “SI PC3” value [24] was 2.3. For the same compound, the MIC [25] was 256 µg/mL (≈ 355 µM).
